From ChEMBL document CHEMBL4152360 (Bioorg Med Chem, 2018)
Activity calls are given as the source filed them. No cut-off for these calls is given here.

Assays:
[1] = biological target: Serine/threonine-protein kinase TBK1 (Homo sapiens) (UniProt Q9UHD2); experiment: Inhibition of human TBK1 assessed as enzyme residual activity at 100 nM by radiometric filter binding assay relative to control
[2] = biological target: Serine/threonine-protein kinase N2 (Homo sapiens) (UniProt Q16513); experiment: Inhibition of human PRK2 assessed as enzyme residual activity at 100 nM by radiometric filter binding assay relative to control
[3] = biological target: Serine/threonine-protein kinase Sgk1 (Homo sapiens) (UniProt O00141); experiment: Inhibition of human SGK1 assessed as enzyme residual activity at 100 nM by radiometric filter binding assay relative to control
Homo sapiens = organism: Homo sapiens; experiment: Inhibition of human PKA assessed as enzyme residual activity at 100 nM by radiometric filter binding assay relative to control
[4] = biological target: Aurora kinase B (Homo sapiens) (UniProt Q96GD4); experiment: Inhibition of human AurB assessed as enzyme residual activity at 100 nM by radiometric filter binding assay relative to control
[5] = biological target: Proto-oncogene tyrosine-protein kinase LCK (Mus musculus) (UniProt P06240); experiment: Inhibition of mouse Lck assessed as enzyme residual activity at 100 nM by radiometric filter binding assay relative to control
[6] = biological target: Serine/threonine-protein kinase D1 (Homo sapiens) (UniProt Q15139); experiment: Inhibition of human PKD1 assessed as enzyme residual activity at 100 nM by radiometric filter binding assay relative to control
[7] = biological target: Tyrosine-protein kinase SYK (Homo sapiens) (UniProt P43405); experiment: Inhibition of human SYK assessed as enzyme residual activity at 100 nM by radiometric filter binding assay relative to control
[8] = biological target: Ribosomal protein S6 kinase beta-1 (Homo sapiens) (UniProt P23443); experiment: Inhibition of human S6K1 assessed as enzyme residual activity at 100 nM by radiometric filter binding assay relative to control
[9] = biological target: Ribosomal protein S6 kinase alpha-5 (Homo sapiens) (UniProt O75582); experiment: Inhibition of human MSK1 assessed as enzyme residual activity at 100 nM by radiometric filter binding assay relative to control
[10] = biological target: Calcium/calmodulin-dependent protein kinase kinase 2 (Homo sapiens) (UniProt Q96RR4); experiment: Inhibition of human CaMKKbeta assessed as enzyme residual activity at 100 nM by radiometric filter binding assay relative to control
[11] = biological target: T1, Casein kinase II subunit alpha (Homo sapiens, UniProt P68400); experiment: Displacement of ARC-1504/ARC-1513-5O from CK2alpha (unknown origin) (1 to 335 residues) assessed as photoluminescence lifetime using non-deoxygenated solution after 15 to 60 mins by luminescence assay
Target sequence in this assay (P68400 whole entry, looked up, the tested form may be a part): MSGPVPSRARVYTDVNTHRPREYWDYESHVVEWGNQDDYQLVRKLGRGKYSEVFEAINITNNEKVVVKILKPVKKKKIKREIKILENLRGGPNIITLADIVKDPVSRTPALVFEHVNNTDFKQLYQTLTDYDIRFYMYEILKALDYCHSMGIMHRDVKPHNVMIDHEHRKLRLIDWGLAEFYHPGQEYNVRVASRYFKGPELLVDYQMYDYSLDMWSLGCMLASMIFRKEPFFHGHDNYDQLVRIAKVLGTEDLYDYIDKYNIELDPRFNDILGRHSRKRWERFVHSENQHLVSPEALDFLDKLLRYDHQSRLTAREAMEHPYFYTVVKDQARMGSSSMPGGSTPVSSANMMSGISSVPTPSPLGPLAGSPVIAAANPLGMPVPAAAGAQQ

[12] = biological target: Vascular endothelial growth factor receptor 1 (Homo sapiens) (UniProt P17948); experiment: Inhibition of human VEGFR1 assessed as enzyme residual activity at 100 nM by radiometric filter binding assay relative to control
[13] = biological target: Receptor-interacting serine/threonine-protein kinase 2 (Homo sapiens) (UniProt O43353); experiment: Inhibition of human RIPK2 assessed as enzyme residual activity at 100 nM by radiometric filter binding assay relative to control
[14] = biological target: Dual specificity tyrosine-phosphorylation-regulated kinase 1A (Homo sapiens) (UniProt Q13627); experiment: Inhibition of human DYRK1alpha assessed as enzyme residual activity at 100 nM by radiometric filter binding assay relative to control
[15] = biological target: Serine/threonine-protein kinase 3 (Homo sapiens) (UniProt Q13188); experiment: Inhibition of human MST2 assessed as enzyme residual activity at 100 nM by radiometric filter binding assay relative to control
[16] = biological target: Tyrosine-protein kinase BTK (Homo sapiens) (UniProt Q06187); experiment: Inhibition of human BTK assessed as enzyme residual activity at 100 nM by radiometric filter binding assay relative to control
[17] = biological target: 3-phosphoinositide-dependent protein kinase 1 (Homo sapiens) (UniProt O15530); experiment: Inhibition of human PDK1 assessed as enzyme residual activity at 100 nM by radiometric filter binding assay relative to control
[18] = biological target: Tyrosine-protein kinase JAK3 (Homo sapiens) (UniProt P52333); experiment: Inhibition of human JAK3 assessed as enzyme residual activity at 100 nM by radiometric filter binding assay relative to control
[19] = biological target: MAP/microtubule affinity-regulating kinase 3 (Homo sapiens) (UniProt P27448); experiment: Inhibition of human MARK3 assessed as enzyme residual activity at 100 nM by radiometric filter binding assay relative to control
[20] = biological target: Casein kinase I isoform delta (Homo sapiens) (UniProt P48730); experiment: Inhibition of human CK1delta assessed as enzyme residual activity at 100 nM by radiometric filter binding assay relative to control
[21] = biological target: Calcium/calmodulin-dependent protein kinase type 1 (Homo sapiens) (UniProt Q14012); experiment: Inhibition of human CaMK1alpha assessed as enzyme residual activity at 100 nM by radiometric filter binding assay relative to control
[22] = biological target: Serine/threonine-protein kinase PLK1 (Homo sapiens) (UniProt P53350); experiment: Inhibition of human PLK1 assessed as enzyme residual activity at 100 nM by radiometric filter binding assay relative to control
[23] = biological target: T1, Casein kinase II subunit alpha; experiment: Inhibition of human CK2alpha assessed as enzyme residual activity at 100 nM by radiometric filter binding assay relative to control
Target sequence in this assay (P68400 whole entry, looked up, the tested form may be a part): as above

[24] = biological target: T1, Casein kinase II subunit alpha; experiment: Displacement of ARC-1504/ARC-1513-5O from CK2alpha (unknown origin) (1 to 335 residues) after 15 to 60 mins by luminescence assay
[25] = biological target: Ribosomal protein S6 kinase alpha-1 (Homo sapiens) (UniProt Q15418); experiment: Inhibition of human RSK1 assessed as enzyme residual activity at 100 nM by radiometric filter binding assay relative to control
[26] = biological target: Glycogen synthase kinase-3 beta (Homo sapiens) (UniProt P49841); experiment: Inhibition of human GSK3beta assessed as enzyme residual activity at 100 nM by radiometric filter binding assay relative to control
[27] = biological target: Myosin light chain kinase, smooth muscle (Homo sapiens) (UniProt Q15746); experiment: Inhibition of human SmMLCK assessed as enzyme residual activity at 100 nM by radiometric filter binding assay relative to control
[28] = biological target: T1, Casein kinase II subunit alpha; experiment: Displacement of 5-TAMRA-labeled ARC-1530 from CK2alpha (unknown origin) (1 to 335 residues) after 15 to 60 mins by luminescence assay
Target sequence in this assay (P68400 whole entry, looked up, the tested form may be a part): as above

[29] = biological target: Homeodomain-interacting protein kinase 2 (Homo sapiens) (UniProt Q9H2X6); experiment: Inhibition of human HIPK2 assessed as enzyme residual activity at 100 nM by radiometric filter binding assay relative to control
[30] = biological target: SRSF protein kinase 1 (Homo sapiens) (UniProt Q96SB4); experiment: Inhibition of human SRPK1 assessed as enzyme residual activity at 100 nM by radiometric filter binding assay relative to control
[31] = biological target: Mitogen-activated protein kinase 14 (Homo sapiens) (UniProt Q16539); experiment: Inhibition of human p38alpha MAPK assessed as enzyme residual activity at 100 nM by radiometric filter binding assay relative to control
[32] = biological target: Protein kinase C alpha type (Homo sapiens) (UniProt P17252); experiment: Inhibition of human PKCalpha assessed as enzyme residual activity at 100 nM by radiometric filter binding assay relative to control

Sequence of Tyrosine-protein kinase JAK3 (Homo sapiens) (P52333 whole entry): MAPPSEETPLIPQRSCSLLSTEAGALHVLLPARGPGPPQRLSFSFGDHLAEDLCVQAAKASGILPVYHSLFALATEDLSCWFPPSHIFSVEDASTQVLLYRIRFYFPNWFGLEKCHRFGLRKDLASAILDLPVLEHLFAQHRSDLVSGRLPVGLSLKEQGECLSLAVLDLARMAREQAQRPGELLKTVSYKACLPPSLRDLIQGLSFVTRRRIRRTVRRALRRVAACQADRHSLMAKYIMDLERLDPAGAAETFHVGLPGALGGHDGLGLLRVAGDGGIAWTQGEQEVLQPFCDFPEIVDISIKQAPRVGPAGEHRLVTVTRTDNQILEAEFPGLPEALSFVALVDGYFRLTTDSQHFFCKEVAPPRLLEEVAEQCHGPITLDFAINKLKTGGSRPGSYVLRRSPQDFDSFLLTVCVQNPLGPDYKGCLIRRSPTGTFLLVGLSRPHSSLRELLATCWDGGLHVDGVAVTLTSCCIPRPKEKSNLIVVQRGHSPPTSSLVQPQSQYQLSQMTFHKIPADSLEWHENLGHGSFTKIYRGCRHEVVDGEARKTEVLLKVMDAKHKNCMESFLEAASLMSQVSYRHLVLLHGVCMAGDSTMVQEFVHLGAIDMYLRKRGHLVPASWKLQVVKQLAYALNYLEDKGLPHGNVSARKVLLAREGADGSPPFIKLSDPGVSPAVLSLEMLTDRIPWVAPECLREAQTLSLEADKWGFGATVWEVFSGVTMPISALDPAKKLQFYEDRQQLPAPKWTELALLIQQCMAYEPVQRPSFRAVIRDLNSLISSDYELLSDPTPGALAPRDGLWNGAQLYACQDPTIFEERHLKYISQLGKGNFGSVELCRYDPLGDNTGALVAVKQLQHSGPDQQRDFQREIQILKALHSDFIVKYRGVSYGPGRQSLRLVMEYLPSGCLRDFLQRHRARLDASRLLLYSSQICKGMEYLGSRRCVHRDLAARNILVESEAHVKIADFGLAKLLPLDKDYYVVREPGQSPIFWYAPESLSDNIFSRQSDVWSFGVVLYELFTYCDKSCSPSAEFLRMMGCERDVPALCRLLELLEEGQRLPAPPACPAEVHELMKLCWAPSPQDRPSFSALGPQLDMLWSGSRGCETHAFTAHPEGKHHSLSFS
Sequence of 3-phosphoinositide-dependent protein kinase 1 (Homo sapiens) (O15530 whole entry): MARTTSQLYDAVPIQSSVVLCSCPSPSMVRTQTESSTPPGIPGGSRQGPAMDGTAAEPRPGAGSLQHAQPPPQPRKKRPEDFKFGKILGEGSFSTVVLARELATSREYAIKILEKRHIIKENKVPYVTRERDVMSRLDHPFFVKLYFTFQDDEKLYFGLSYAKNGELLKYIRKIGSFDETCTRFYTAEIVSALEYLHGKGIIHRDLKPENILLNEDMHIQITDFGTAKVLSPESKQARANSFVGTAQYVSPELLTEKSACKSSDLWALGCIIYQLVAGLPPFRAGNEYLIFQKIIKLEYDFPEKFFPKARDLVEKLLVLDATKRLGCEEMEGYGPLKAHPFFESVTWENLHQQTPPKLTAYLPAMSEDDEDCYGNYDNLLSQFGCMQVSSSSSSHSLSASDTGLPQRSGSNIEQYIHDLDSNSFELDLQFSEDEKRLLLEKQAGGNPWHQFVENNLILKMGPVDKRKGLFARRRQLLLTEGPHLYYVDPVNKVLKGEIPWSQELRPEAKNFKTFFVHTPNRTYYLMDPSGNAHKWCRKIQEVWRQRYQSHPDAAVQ
Sequence of MAP/microtubule affinity-regulating kinase 3 (Homo sapiens) (P27448 whole entry, looked up, canonical isoform): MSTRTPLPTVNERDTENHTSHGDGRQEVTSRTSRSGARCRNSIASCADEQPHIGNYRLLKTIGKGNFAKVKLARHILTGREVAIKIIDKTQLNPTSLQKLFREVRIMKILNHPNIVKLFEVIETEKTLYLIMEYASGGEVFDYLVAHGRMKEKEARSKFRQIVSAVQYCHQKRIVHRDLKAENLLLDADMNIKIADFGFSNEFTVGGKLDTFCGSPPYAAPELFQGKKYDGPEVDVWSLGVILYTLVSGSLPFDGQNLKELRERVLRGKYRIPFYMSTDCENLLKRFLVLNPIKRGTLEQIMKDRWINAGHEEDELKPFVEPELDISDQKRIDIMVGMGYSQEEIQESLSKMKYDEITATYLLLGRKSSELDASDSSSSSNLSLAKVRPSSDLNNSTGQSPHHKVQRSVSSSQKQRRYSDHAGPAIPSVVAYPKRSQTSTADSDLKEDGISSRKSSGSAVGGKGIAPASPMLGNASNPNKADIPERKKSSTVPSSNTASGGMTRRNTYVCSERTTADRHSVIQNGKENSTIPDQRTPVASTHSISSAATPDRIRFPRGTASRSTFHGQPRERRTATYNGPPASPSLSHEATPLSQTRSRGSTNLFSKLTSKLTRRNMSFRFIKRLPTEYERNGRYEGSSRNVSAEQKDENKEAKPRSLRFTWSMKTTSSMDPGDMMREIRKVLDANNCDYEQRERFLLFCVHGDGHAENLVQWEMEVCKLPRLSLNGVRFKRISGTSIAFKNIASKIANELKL
Sequence of Serine/threonine-protein kinase PLK1 (Homo sapiens) (P53350 whole entry): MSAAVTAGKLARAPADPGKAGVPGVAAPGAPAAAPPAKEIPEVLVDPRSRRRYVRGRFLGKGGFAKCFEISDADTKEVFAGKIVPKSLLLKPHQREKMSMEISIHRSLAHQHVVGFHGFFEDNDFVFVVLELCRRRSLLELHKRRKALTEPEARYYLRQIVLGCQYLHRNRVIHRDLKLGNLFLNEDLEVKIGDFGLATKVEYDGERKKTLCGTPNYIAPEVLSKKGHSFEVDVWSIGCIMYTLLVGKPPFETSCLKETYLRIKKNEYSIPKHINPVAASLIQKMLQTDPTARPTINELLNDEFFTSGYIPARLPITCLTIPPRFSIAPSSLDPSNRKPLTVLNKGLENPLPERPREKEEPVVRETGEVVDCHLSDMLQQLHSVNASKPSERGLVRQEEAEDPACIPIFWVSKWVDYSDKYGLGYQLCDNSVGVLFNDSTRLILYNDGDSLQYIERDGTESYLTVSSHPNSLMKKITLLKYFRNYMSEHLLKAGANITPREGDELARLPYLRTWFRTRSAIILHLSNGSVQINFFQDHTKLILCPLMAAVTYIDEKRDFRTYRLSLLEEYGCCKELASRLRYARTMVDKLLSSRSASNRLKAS
Sequence of Ribosomal protein S6 kinase alpha-5 (Homo sapiens) (O75582 whole entry, looked up): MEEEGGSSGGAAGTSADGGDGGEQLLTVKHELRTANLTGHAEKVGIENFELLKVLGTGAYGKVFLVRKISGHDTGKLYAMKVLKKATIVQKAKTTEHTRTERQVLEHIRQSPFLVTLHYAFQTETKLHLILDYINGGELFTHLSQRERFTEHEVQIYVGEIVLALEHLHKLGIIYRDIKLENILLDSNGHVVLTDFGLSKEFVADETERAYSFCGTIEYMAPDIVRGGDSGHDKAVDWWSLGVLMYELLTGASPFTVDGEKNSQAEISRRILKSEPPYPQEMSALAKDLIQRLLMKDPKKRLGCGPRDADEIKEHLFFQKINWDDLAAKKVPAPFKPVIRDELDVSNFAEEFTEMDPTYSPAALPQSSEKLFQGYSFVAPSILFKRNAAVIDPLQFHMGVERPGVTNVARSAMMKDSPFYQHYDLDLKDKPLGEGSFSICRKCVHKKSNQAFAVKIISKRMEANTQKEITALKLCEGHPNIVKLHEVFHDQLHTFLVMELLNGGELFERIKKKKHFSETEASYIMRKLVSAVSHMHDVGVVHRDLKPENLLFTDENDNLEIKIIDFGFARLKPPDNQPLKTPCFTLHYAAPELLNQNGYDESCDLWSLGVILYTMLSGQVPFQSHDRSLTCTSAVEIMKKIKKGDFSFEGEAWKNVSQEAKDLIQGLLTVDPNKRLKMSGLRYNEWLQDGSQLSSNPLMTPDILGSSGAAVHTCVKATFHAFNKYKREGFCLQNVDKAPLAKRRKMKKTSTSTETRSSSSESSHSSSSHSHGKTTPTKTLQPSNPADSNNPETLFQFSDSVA
Sequence of Serine/threonine-protein kinase TBK1 (Homo sapiens) (Q9UHD2 whole entry): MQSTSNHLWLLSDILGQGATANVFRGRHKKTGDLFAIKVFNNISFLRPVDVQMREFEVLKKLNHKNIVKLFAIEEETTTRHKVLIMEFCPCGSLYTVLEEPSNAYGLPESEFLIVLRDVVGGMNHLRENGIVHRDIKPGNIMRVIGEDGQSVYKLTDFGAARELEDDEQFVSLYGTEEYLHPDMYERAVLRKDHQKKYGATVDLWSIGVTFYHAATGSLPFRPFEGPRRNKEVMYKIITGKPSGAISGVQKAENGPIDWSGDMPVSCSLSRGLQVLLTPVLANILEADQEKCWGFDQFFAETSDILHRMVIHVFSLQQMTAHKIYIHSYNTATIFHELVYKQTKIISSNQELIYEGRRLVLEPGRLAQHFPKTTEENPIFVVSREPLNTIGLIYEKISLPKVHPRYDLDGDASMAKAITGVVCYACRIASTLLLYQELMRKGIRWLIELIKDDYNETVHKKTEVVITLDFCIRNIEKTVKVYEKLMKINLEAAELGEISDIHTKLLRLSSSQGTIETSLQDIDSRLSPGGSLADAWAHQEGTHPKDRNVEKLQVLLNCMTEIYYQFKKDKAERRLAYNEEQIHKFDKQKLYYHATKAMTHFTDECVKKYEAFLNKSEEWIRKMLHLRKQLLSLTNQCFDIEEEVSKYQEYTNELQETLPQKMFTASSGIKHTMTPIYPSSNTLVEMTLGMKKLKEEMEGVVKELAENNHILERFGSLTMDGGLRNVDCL

Activity [1]: 78% | Activity [2]: 109% | Activity [3]: 97% | Activity (Homo sapiens): 92% | Activity [4]: 129% | Activity [5]: 101% | Activity [6]: 117% | Activity [7]: 122% | Activity [8]: 104% | Activity [9]: 115% | Activity [10]: 120% | Time [11]: 82 microsec | Activity [12]: 87% | Activity [13]: 85% | Activity [14]: 11.5% | Activity [15]: 101% | Activity [16]: 99% | Activity [17]: 111% | Activity [18]: 85% | Activity [19]: 99% | Activity [20]: 107% | Activity [21]: 111% | Activity [22]: 83% | Activity [23]: 1.9% | Kd [24]: 0.58 nM | Activity [25]: 101% | Activity [26]: 19% | Activity [27]: 68% | Activity [28]: Active | Activity [29]: 23% | Activity [30]: 69% | Activity [31]: 102% | Activity [32]: 95%
SMILES: NCCCC[C@@H](NC(=O)[C@@H](CC(=O)O)NC(=O)[C@@H](CC(=O)O)NC(=O)[C@@H](CC(=O)O)NC(=O)[C@@H](CC(=O)O)NC(=O)[C@@H](CC(=O)O)NC(=O)[C@@H](CC(=O)O)NC(=O)CCCCCNC(=O)CCC(=O)Nc1ncc(-c2ccc(C(=O)O)cc2)s1)C(=O)O
